Tests used:
tumors = test: Intraoperative NIR imaging for fluorescence guided surgery (FGS) in tumor-bearing mice; type: in vivo
Protocol: FIG. 5 depicts intraoperative imaging of OCTL14 for fluorescence guided surgery (FGS). (a) FGS using the squaraine. Tumor-bearing mice were intravenously injected with 100 nmol of OCTL14. FGS was performed 6 h post-injection. The yellow circle indicates the lesions for which intraoperative image-guided surgeries were performed. The middle panels show the tumor locations before/after surgery and resected tumors of different sizes. Scale bars=1 cm. (b) Clinical impact of the use of OCTL14. The number of tumors detected using color images only was compared to those detected using NIR imaging by experienced surgeons.
Structure-inherent targeting: Squaraines are selectively taken up by cancer cells via organic cation transporters (OCTs), overexpressed by cancer cells (FIG. 4). This high affinity is mediated by the unique structure of the molecule. This was achieved this by introducing an asymmetric molecular conformation and surface charges. In this way, squaraines can be up-taken rapidly via transporter and selectively accumulate in cancer cells, not normal cells. In addition, we have shown that once they are taken up by cancer cells, squaraines can stay in lysosomes for hours for durable imaging. This feature is critical to have a clear contrast between cancerous and normal tissue for clear cancer imaging during surgery or medical procedures.

cancer = conditions: in vivo; cited from earlier work

Br.C[N+]1=C(/C=C2\C(=O)C(/C=C3/N(CCC[N+](C)(C)C)c4ccc(F)cc4C3(C)C)=C2[O-])C(C)(C)c2ccccc21.[I-] [OCTL14, Mono ((Z)-2-((E)-(5-fluoro-3,3-dimethyl-1-(3-(trimethylammonio)propyl)indolin-2-ylidene)methyl)-3-oxo-4-((1,3,3-trimethyl-3H-indol-1-ium-2-yl)methylene)cyclobut-1-enolate) mono bromide monoiodide]
localization of cancer tissues (tumors; 6 h post-injection, 100 nmol intravenously, tumor-bearing mice): precise localization of cancer tissues
resection of tumors under image guidance (tumors; FGS 6 h post-injection): complete resection of tumors
residual tumor after FGS (tumors; FGS 6 h post-injection): no residual tumor

CC1(C)C(/C=C/C=C/C=C/C=C2\N(CCCCS(=O)(=O)O)c3ccc4ccccc4c3C2(C)C)=[N+](CCCCS(=O)(=O)[O-])c2ccc3ccccc3c21 [ICG, indocyanine green]
blood half-life (cancer): short blood half-life
cancer targeting capability (cancer): no specific cancer targeting capability

Reference: patent publication US20250109104A1, “SQUARAINE FLUOROPHORES” (The General Hospital Corporation, priority 2022, published 2025)
